The record followed here is ChEMBL document CHEMBL1155461, “Emerging targets in osteoporosis disease modification” (J Med Chem, 2010).

What is called inhibition in vivo is how much of the control response was suppressed. A word on the clearance: it is a measure of how efficiently the substance is removed, as volume per time. The term bioavailability denotes dose-corrected exposure relative to a reference, in per cent. The term pIC50 denotes −log10 of the IC50, conventionally taken in molar units. In general, pEC50 refers to the EC50 on a negative log10 scale, so that one unit is a factor of ten. In general, Cmax refers to the maximum level reached in the sampled fluid or tissue. In general, AUC refers to the area under the concentration-time curve, a measure of exposure. For orientation: solubility means how much of the substance goes into solution per volume. One may read the half-life as how long it takes for the measured level to halve.

In series [1] the test system is Cynomolgus monkey. The series is described as follows: Antiosteoporotic activity in cynomolgus monkey assessed as decrease in bone resorption-associated serum CTX-1 level at 10 mg/kg, po administered as single dose. Type of series: functional. The following applies: Macaca fascicularis.
For series [2], the system named is Cynomolgus monkey. The series is described as follows: Antiosteoporotic activity in cynomolgus monkey assessed as increase in lumbar vertebrae bone strength at 1000 mg/kg administered daily for 1 year. Type of series: functional, Macaca fascicularis, Lumbar vertebra.
For series [3], the system named is Cynomolgus monkey. The series is described as follows: Antiosteoporotic activity in cynomolgus monkey assessed as decrease in bone resorption-associated urinary CTX-1 level at 10 mg/kg, po administered as single dose. Type of series: functional. Conditions: Macaca fascicularis, Urine.
Series [4] has as its system Cynomolgus monkey. The series is described as follows: Antiosteoporotic activity in cynomolgus monkey assessed as decrease in bone resorption-associated serum CTX-1 level at 10 mg/kg, po administered 5X a day. Type of series: functional. The following applies: Macaca fascicularis.
For series [5], the system named is Cynomolgus monkey. As to the kind of experiment: Antiosteoporotic activity in cynomolgus monkey assessed as increase in lumbar vertebrae bone strength at 30 mg/kg administered daily for 1 year. Type of series: functional, Macaca fascicularis, Lumbar vertebra.
The test system of series [6] is Cynomolgus monkey. As to the kind of experiment: Antiosteoporotic activity in cynomolgus monkey assessed as decrease in bone resorption-associated urinary CTX-1 level at 10 mg/kg, po administered 5X a day. Type of series: functional. Conditions: Macaca fascicularis, Urine.
Series [7] in a line: Clearance in dog. Conditions: in vivo. Type of series: ADME, organism-based, Canis lupus familiaris.
Series [8] can be described thus: Bioavailability in dog. The class given is ADME, organism-based, Canis lupus familiaris. The following applies: in vivo.
The species named for series [9] is Homo sapiens. As to the kind of experiment: Plasma protein binding in human. The following applies: read-out: PPB (converted).
A further series addresses Cannabinoid receptor 2 (Homo sapiens, UniProt P34972). The series is described as follows: Antagonist activity at cannabinoid CB2 receptor. The class given is functional.
A further series has as its system Osteoclast. As to the kind of experiment: Inhibition of osteoclast differentiation. The class given is functional, cell-based.
A short description of series [10]: Induction of osteogenesis in mouse calvarial cells assessed as increase in total bone area at 10 nM. The class given is functional, Calvarial cell.
The target of series [11] is Parathyroid hormone/parathyroid hormone-related peptide receptor (Homo sapiens, UniProt Q03431).
Series [12] relates to Homo sapiens. The series is described as follows: Antiosteoporotic activity in men with osteoporosis assessed as decrease in bone resorption-associated serum CTX-1 level at 250 mg/kg after 10 to 14 days. The class given is functional, organism-based. Also noted: dose 250 mg/kg.
Series [13] deals with T1, Extracellular calcium-sensing receptor (Homo sapiens, UniProt P41180).
T1 sequence (P41180 whole entry): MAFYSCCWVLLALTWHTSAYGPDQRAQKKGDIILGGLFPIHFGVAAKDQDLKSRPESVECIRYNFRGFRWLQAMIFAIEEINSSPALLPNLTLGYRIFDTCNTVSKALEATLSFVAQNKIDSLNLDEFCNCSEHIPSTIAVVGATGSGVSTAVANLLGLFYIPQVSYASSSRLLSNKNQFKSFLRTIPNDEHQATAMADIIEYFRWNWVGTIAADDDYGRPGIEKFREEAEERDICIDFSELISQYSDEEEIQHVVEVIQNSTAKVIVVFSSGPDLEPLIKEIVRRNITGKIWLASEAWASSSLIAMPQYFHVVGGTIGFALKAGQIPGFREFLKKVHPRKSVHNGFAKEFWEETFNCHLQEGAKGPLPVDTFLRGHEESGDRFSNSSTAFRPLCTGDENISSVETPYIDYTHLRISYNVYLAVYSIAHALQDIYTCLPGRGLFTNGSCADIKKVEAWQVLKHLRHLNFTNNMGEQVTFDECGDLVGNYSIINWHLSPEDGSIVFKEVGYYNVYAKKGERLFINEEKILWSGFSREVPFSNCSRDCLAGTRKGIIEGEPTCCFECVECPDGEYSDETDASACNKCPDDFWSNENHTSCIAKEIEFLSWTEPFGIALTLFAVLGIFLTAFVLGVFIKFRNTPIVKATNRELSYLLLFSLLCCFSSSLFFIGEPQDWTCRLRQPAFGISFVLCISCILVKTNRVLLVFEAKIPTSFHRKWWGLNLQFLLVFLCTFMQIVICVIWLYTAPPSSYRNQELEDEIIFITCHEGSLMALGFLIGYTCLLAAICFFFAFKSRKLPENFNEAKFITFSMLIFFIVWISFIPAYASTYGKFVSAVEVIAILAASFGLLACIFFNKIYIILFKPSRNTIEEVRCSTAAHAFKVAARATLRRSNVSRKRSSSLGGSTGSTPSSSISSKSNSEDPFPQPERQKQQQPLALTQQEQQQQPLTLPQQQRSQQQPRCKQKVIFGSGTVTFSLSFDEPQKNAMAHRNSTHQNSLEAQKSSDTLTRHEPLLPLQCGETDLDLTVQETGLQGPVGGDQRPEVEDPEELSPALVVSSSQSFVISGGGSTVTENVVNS

Series [14] can be described thus: Oral bioavailability in rat. Type of series: ADME, organism-based. Conditions: in vivo.
Series [15] can be described thus: Selectivity for cathepsin K over cathepsin B.
In another series the target is Cathepsin K (Rattus norvegicus, UniProt O35186). As to the kind of experiment: Inhibition of rat cathepsin K.
Series [16] is described as follows: Cmax in rat at 50 mg/kg, po. The class given is ADME, organism-based. Also noted: dose 50 mg/kg, route oral. Conditions: in vivo.
Series [17] can be described thus: AUC in rat at 50 mg/kg, po. The following applies: plasma. The class given is ADME, organism-based. Also noted: dose 50 mg/kg, route oral.
Series [18] is described as follows: Selectivity for cathepsin K over cathepsin S.
The nature of series [19]: Selectivity for cathepsin K over cathepsin L.
In series [20] the target is Vitronectin (Homo sapiens) (UniProt P04004). As to the kind of experiment: Inhibition of vitronectin.
In the next series the target is Integrin alpha-V/beta-3 (Homo sapiens, UniProt P05106+P06756).
Series [21] can be described thus: Aqueous solubility of the compound. The class given is physicochemical. Conditions: aqueous medium.
Series [22] can be described thus: Clearance in rat. The class given is ADME, organism-based. The following applies: in vivo.
The nature of series [23]: Half life in rat. The class given is ADME, organism-based. Conditions: in vivo.
Series [24] has as its target Integrin alpha-IIb/beta-3 (Homo sapiens) (UniProt P05106+P08514). As to the kind of experiment: Inhibition of integrin alpha2Bbeta3. Type of series: protein-complex assay.

Each structure is given as a SMILES string. pEC50, pIC50: −log10 of the molar value. Values after ≈ are worked out from the molar mass of the structure shown.

Cathepsin K, sequence (O35186 whole entry): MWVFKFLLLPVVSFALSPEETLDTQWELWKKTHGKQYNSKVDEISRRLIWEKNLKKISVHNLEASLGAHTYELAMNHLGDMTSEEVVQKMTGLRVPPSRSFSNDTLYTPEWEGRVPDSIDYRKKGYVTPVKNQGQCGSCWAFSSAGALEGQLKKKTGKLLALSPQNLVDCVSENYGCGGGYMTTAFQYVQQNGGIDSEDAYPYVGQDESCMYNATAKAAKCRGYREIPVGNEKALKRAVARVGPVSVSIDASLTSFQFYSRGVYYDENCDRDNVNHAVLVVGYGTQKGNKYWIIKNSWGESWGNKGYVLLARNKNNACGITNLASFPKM
Cannabinoid receptor 2, sequence (P34972 whole entry): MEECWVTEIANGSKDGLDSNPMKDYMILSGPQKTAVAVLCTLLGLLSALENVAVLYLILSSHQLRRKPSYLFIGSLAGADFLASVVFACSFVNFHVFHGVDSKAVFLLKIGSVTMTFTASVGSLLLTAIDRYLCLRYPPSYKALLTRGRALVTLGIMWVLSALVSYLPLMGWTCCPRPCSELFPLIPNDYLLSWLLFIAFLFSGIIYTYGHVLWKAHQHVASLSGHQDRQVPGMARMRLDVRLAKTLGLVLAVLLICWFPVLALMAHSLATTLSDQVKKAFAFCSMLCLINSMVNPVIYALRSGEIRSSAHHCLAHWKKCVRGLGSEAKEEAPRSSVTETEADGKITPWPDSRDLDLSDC
Integrin alpha-V/beta-3, sequence (P05106 27-788 limits assumed): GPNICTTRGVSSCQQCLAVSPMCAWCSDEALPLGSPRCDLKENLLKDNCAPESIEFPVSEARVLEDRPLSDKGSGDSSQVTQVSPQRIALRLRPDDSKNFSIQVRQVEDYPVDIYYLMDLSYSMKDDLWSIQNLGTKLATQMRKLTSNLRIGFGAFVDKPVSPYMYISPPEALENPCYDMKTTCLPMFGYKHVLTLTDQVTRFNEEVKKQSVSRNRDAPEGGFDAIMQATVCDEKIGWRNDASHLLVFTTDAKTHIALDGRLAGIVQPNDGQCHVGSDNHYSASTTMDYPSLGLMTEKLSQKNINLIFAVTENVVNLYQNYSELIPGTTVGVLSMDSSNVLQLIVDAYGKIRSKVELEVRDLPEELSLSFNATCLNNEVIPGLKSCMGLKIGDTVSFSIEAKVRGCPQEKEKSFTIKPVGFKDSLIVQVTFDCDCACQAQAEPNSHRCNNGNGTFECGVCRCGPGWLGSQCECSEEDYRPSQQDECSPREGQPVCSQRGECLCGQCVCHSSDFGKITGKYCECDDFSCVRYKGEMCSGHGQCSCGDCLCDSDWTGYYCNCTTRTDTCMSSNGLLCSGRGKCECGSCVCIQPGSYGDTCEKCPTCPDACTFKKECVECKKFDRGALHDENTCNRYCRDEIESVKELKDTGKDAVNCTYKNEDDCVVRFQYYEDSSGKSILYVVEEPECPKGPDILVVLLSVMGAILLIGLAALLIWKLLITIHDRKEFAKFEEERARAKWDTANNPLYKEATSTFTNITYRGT
Integrin alpha-V/beta-3, sequence (P06756 31-889 limits assumed): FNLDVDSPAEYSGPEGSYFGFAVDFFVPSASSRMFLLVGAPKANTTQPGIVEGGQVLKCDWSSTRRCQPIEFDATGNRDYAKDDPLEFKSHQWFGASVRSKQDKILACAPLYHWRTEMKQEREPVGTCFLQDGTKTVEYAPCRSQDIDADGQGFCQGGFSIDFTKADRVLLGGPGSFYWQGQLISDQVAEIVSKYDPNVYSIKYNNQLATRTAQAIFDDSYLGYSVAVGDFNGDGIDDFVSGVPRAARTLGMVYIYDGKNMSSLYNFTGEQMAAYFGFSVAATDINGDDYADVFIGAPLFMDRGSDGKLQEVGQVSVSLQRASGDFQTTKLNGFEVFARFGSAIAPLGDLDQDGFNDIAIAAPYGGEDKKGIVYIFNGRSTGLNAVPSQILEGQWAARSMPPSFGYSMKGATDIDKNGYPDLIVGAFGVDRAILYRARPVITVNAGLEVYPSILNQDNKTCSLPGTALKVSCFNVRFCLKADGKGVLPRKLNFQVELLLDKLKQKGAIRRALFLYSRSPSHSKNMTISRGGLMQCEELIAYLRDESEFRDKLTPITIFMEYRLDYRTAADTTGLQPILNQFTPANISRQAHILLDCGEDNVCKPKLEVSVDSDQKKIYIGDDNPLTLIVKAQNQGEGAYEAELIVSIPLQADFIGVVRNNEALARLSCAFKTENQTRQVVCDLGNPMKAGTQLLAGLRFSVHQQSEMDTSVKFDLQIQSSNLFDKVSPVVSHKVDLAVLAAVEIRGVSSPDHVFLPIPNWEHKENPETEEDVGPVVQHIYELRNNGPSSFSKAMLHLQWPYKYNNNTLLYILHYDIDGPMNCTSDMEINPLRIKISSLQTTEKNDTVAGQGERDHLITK
Integrin alpha-V/beta-3, sequence (P06756 891-1048 limits assumed): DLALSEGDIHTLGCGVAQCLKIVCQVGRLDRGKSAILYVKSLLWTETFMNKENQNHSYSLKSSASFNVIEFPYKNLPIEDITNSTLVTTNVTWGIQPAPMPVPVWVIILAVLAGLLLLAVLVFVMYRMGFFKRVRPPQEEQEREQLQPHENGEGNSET
Parathyroid hormone/parathyroid hormone-related peptide receptor, sequence (Q03431 whole entry): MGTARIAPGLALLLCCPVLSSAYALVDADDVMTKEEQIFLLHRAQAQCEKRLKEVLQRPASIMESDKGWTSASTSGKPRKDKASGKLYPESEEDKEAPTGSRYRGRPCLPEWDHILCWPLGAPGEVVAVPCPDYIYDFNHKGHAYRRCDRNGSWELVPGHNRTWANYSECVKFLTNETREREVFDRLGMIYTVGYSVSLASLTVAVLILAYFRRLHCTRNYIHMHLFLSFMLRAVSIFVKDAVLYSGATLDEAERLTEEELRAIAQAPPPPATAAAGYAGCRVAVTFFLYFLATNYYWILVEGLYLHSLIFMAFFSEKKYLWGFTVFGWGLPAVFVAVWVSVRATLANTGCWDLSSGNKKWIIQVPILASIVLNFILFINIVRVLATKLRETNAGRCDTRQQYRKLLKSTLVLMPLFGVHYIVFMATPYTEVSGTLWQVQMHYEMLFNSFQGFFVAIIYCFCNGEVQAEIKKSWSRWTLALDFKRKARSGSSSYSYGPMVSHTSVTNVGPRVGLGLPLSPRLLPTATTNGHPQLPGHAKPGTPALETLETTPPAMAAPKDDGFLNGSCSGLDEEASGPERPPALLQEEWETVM
Vitronectin (Homo sapiens), sequence (P04004 whole entry): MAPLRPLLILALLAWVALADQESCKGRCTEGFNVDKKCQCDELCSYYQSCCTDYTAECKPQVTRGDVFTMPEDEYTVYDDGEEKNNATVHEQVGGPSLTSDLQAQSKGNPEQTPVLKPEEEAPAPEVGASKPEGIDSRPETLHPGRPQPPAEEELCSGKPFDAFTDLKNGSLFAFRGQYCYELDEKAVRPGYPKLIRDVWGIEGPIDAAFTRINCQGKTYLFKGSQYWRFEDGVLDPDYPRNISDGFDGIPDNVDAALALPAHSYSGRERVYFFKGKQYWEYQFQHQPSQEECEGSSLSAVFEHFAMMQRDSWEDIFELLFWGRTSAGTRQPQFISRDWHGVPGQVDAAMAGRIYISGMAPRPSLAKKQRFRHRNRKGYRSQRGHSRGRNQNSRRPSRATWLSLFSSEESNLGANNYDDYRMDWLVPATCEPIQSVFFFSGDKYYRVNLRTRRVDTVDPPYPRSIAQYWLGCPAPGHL

Consider `CC(C)C[C@H](NC(=O)c1cc2ccccc2o1)C(=O)N[C@H]1CC[C@@H](C)N(S(=O)(=O)c2ccccn2)CC1=O` [RELACATIB], for which the inhibition in vivo at 10 mg/kg in the series with Cynomolgus monkey [1], in the series on Cynomolgus monkey [3], in the series on Cynomolgus monkey [4] and with Cynomolgus monkey [6] was not above 57% in each case. Also, the Activity is given as 49% in the series on Cynomolgus monkey [2] and 42% with Cynomolgus monkey [5].

In turn, `COc1ccc([C@@H](CCC[C@H](O)CCc2ccc3c(n2)NCCC3)CC(=O)O)cn1` registered a clearance in series [7] of 2.5 mL/min/kg. In addition, the bioavailability in series [8] stood at 60%. Moreover, the fraction unbound in the series listed under Homo sapiens [9] was 0.07.

Consider `COc1ccc(C(=O)c2c(C)n(CCN3CCOCC3)c3cc(I)ccc23)cc1`, for which the pIC50 on Cannabinoid receptor 2 was 5.14; with Osteoclast, 6.48.

In the case of `O=S(=O)(NC1CCNCC1)c1cc(S(=O)(=O)c2ccccc2)ccc1C(F)(F)F`, the Activity in [10] was 60%.

Take `CCCCN1C(=O)C(=C(N)N)C(=O)N(CCCC)C1=O`: the pEC50 in [11] is 5.49; in the series on Homo sapiens [12] it was 5.82.

As for `Cc1ccc(CC(C)(C)NC[C@@H](O)CO[C@H](C)c2ccccc2[C@@H]2C[C@@H]3C[C@H]2[C@H]2[C@H](C(=O)O)[C@@H]32)cc1F`, in series [13], the pIC50 was 7.60. Further, the bioavailability in series [14] turned out to be 60%.

As to `CC[C@@H](CNc1ccc(OCC(=O)O)cc1)NC(=O)C1(Nc2cccc(-c3ccccc3)c2)CCCCC1`, the Selectivity ratio in series [15] was more than 4170; in series [18], 2080; in series [19], more than 4170. For the same molecule, at Cathepsin K, the pIC50 was 7.24. In [16], this molecule displayed a Cmax of 9200 ng/mL. The molecule also had an AUC in [17] of 104 µg·h/mL.

As to `COc1cc(C(=O)NC[C@H](NS(=O)(=O)c2ccccc2)C(=O)O)ccc1N1CCC(NC2=NCCCN2)CC1`, the INH in [20] is 110 nM; in series [24], 0.44 nM. Moreover, the pIC50 against Integrin alpha-V/beta-3 was 9.72. Also, the concentration in solution in series [21] (solubility) was 1300 µg/mL (≈ 2330 µM). In [22], this molecule yielded a clearance of 47 mL/min/kg. In series [23], this molecule gave a half-life of 46 min.
